Marks after values point to notes of the source that are not given here.
Key:
[1] = target: T1, PDE4A enzyme (Homo sapiens, UniProt P27815); assay: Inhibition of the activity of PDE4A enzyme (fluorescence polarization, Transcreener AMP2/GMP2); format: biochemical; conditions: 1 h, mean ± spread; for remaining activity at 0.01 µM: 0.01 μM compound; for remaining activity at 0.1 µM: 0.1 μM compound; for remaining activity at 1 µM: 1 μM compound
T1 construct: GST (N); host or cells: Sf9 insect cells (baculovirus)
T1 sequence (P27815 whole entry, species assumed): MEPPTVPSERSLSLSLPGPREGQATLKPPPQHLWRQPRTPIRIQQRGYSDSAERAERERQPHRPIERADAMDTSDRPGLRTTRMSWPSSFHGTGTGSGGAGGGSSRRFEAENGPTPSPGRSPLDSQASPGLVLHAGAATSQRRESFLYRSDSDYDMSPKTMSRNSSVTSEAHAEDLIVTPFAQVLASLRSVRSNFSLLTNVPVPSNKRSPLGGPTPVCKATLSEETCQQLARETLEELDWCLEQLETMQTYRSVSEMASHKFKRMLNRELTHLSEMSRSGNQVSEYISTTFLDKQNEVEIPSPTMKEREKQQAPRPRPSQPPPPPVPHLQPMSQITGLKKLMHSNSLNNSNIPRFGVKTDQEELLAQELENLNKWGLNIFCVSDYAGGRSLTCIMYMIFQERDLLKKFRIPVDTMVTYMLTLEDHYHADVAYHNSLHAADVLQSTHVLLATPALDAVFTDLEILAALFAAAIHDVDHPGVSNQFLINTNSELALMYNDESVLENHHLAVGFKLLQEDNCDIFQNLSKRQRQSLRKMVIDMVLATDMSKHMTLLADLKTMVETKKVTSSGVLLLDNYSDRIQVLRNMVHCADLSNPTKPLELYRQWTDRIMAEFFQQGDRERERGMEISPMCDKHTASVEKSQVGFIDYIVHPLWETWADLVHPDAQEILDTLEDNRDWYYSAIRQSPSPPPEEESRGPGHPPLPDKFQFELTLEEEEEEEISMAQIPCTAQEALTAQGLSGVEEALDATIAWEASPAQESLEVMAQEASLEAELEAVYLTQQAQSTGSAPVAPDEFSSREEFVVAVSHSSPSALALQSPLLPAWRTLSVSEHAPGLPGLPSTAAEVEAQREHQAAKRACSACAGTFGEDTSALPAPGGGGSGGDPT
Method: The PDE4A enzyme expressed from baculovirus is labeled with N-terminal GST from Sf9 insect cells. A specified PDE4A enzyme and 1 mM cAMP are added to the newly prepared pH 7.5 Tris buffer, the enzyme solution is transferred into reaction wells, and the compound is sonicated in DMSO and then added to the enzyme solution for culturing for 10 minutes at room temperature; the substrate solution is poured into the reaction wells to initiate the reaction and cultured at room temperature for 1 hour, and a detection tracer (AMP2/GMP2 AlexaFluor 633 Tracer) and an antibody (Transcreener® AMP2/GMP2 Antibody) are added to stop the reaction for culturing for 90 minutes with gentle mixing. […]

[2] = tested on: DNCB-induced atopic dermatitis mice; assay: DNCB-induced dermatitis mouse model, skin thickness; format: in vivo, female BALB/C mice; conditions: for reduction of the thickness of the dermis compared with Crisaborole / reduction of the thickness of the epidermis compared with Crisaborole / reduction of the thickness of the dermis compared with the compound Y5 / reduction of the thickness of the epidermis compared with the compound Y5: 50 mg/mL topical; for reduction of the thickness of the dermis compared with Crisaborole / reduction of the thickness of the epidermis compared with Crisaborole: statistical comparison vs Crisaborole group; for Epidermal thickness / Dermis thickness: 50 mg/mL, 100 μL applied to back skin, 11 times once a day, Mean ± SD, n = 8; for Epidermal thickness: model 137.76, blank 48.93; for Dermis thickness: model 500.71, blank 194.70; for reduction of the thicknesses of the epidermal layer and dermal layer: vs model group, P<0.01; for reduction of the thickness of the dermis compared with the compound Y5 / reduction of the thickness of the epidermis compared with the compound Y5: statistical comparison vs Y5 group
Method: After female BALB/C mice are selected, each weighing 18-22 g, for animal adaptive breeding for 7 days, these are randomly divided into a blank group, a model group, a positive drug Crisaborole group, a hexadecadrol group, and compound groups, with 8 in each group. Except for the mice in the blank group, the remaining mice are applied with 100 μL of a 1% DNCB solution [acetone: olive oil=4:1 (V/V)] on the skin of the back of the shaved mice, and applied continuously for 3 days once a day. Then, dosing treatment starts 4 days after the mice are housed, and the test drug is applied to the back of each group of animals, wherein animals in the blank group and the model group are applied with a corresponding solvent, the positive drug Crisaborole group and hexadecadrol group are applied with 50 mg/mL of a corresponding drug, and the administration group is applied with 50 mg/mL of a corresponding compound, with 100 μL for each mouse; after application of 4 hours, 0.5% DNCB solution is applied for secondary challenge, and repeated administration and challenge treatment are performed 11 times, once a day. 24 hours after the last administration, the animals are sacrificed, and the back skins (1×0.4 cm^2) are taken and fixed in 10% formalin buffer to make pathological sections and perform HE staining; then, the epidermal and dermal layers are observed under a 100× […], and 5 areas are selected for detection of and recording the skin thickness, and then the average value is taken to represent the final thicknesses of the epidermal layer and dermal layer, respectively.

remaining activity at 0.01 µM [1] | remaining activity at 0.1 µM [1] | remaining activity at 1 µM [1] | Compound | reduction of the thickness of the dermis compared with Crisaborole [2] | reduction of the thickness of the epidermis compared with Crisaborole [2] | Epidermal thickness [2] | Dermis thickness [2] | reduction of the thicknesses of the epidermal layer and dermal layer [2] | reduction of the thickness of the dermis compared with the compound Y5 [2] | reduction of the thickness of the epidermis compared with the compound Y5 [2]
18.8 ± 3.23% | 5.45 ± 1.06% | 3.74 ± 0.71% | COC(=O)c1cccc2nc(Oc3ccc4c(c3)COB4O)ccc12 [PD-1] | significantly reduce the thickness of the dermis of dermatitis mice (P≤0.01) | significantly reduce the thickness of the epidermis (P≤0.01) | 75.64 ± 7.86 aa μm | 385.26 ± 20.17 a μm |  | significantly reduce the thickness of the dermis of dermatitis mice (P≤0.05) | significantly reduce the thickness of the epidermis (P≤0.01)
7.42 ± 2.11% | 3.8 ± 0.76% | 2.75 ± 0.51% | O=C(O)c1cccc2nc(Oc3ccc4c(c3)COB4O)ccc12 [PD-2] |  |  | 100.26 ± 11.35 μm | 439.76 ± 30.02 μm |  |  | 
17.3 ± 1.19% | 4.94 ± 1.56% | 1.98 ± 0.47% | CCOC(=O)c1cccc2nc(Oc3ccc4c(c3)COB4O)ccc12 [PD-3] | significantly reduce the thickness of the dermis of dermatitis mice (P≤0.05) |  | 98.74 ± 9.63 μm | 420.80 ± 30.55 μm |  |  | 
6.17 ± 0.34% | 2.49 ± 0.75% | 1.95 ± 0.18% | N#Cc1ccc2nc(Oc3ccc4c(c3)COB4O)ccc2c1 [PD-4] | significantly reduce the thickness of the dermis of dermatitis mice (P≤0.01) | significantly reduce the thickness of the epidermis (P≤0.01) | 70.42 ± 9.24 aa μm | 375.06 ± 20.41 a a μm |  | significantly reduce the thickness of the dermis of dermatitis mice (P≤0.01) | significantly reduce the thickness of the epidermis (P≤0.01)
9.01 ± 2.02% | 7.27 ± 1.78% | 3.46 ± 1.18% | COC(=O)c1cc(Oc2ccc3c(c2)COB3O)nc2ccccc12 [PD-5] |  |  | 106.74 ± 15.14 μm | 440.12 ± 23.22 μm |  |  | 

More lines, now with the values behind:

Compound | remaining activity at 0.01 µM [1] | remaining activity at 0.1 µM [1] | remaining activity at 1 µM [1] | reduction of the thickness of the dermis compared with Crisaborole [2] | reduction of the thickness of the epidermis compared with Crisaborole [2] | Epidermal thickness [2] | Dermis thickness [2] | reduction of the thicknesses of the epidermal layer and dermal layer [2] | reduction of the thickness of the dermis compared with the compound Y5 [2] | reduction of the thickness of the epidermis compared with the compound Y5 [2]
OB1OCc2cc(Oc3ccc(C(F)(F)F)cn3)ccc21 [Compound Y5, reference compound] | 61.3 ± 3.18% | 15.3 ± 1.3% | 5.56 ± 0.28% | significantly reduce the thickness of the dermis of dermatitis mice (P≤0.01) | significantly reduce the thickness of the epidermis of the dermatitis mice (P≤0.05) | 90.14 ± 8.98 μm | 415.08 ± 25.00 μm | significantly reduce the thicknesses of the epidermal layer and dermal layer |  | 
N#Cc1ccc(Oc2ccc3c(c2)COB3O)cc1 [Crisaborole, reference compound] | 78 ± 5.02% | 35.2 ± 3.35% | 11 ± 0.52% |  |  | 105.26 ± 11.35 μm | 455.14 ± 27.27 μm | significantly reduce the thicknesses of the epidermal layer and dermal layer |  | 
C[C@@H]1C[C@H]2[C@@H]3CCC4=CC(=O)C=C[C@]4(C)[C@@]3(F)[C@@H](O)C[C@]2(C)[C@@]1(O)C(=O)CO [hexadecadrol, reference compound] |  |  |  |  |  | 72.14 ± 10.58 ^a a μm | 377.32 ± 22.05**^a a μm | significantly reduce the thicknesses of the epidermal layer and dermal layer |  | 
